SMILES strings stand for the structures. Values joined by “and” are separate entries in the source; they are usually repeats but may differ in a detail not shown here. Equal values may be shown once.

Consider `COc1cc(OC)cc(N(CCO)c2ccc3ncc(-c4cnn(C)c4)nc3c2)c1`, for which the melting point was 152.97 °C and 153 °C.

In turn, `COc1cc(OCCO)cc(N(CC2CC2)c2ccc3ncc(-c4cn[nH]c4)nc3c2)c1` returned a melting point of 80 °C.

Take `COc1cc(OC)cc(N(CC2CC2)c2ccc3ncc(-c4cn[nH]c4)nc3c2)c1`: the melting point was 158 to 160 °C and 159 °C.

Compound `COc1cc(OC)cc(N(CC2CC2)c2ccc3ncc(-c4cnn(CCN)c4)nc3c2)c1` registered a melting point of 130 °C.

For the compound `COc1cc(OC)cc(N(CC2CC2)c2ccc3ncc(-c4cnn(CC(C)C)c4)nc3c2)c1`, the melting point is 110 °C.

`COCCn1cc(-c2cnc3ccc(N(CC4CC4)c4cc(OC)cc(OC)c4)cc3n2)cn1` showed a melting point of 101.91 °C.

`CNC(=O)Cn1cc(-c2cnc3ccc(N(CC4CC4)c4cc(OC)cc(OC)c4)cc3n2)cn1` gave a melting point of 170.82 °C.

The compound `COc1cc(OC)cc(N(CC2OCCO2)c2ccc3ncc(-c4cnn(C)c4)nc3c2)c1` yielded a melting point of 204.29 °C.

`COc1cc(OC)cc(N(CCN2C(=O)c3ccccc3C2=O)c2ccc3ncc(-c4cnn(C)c4)nc3c2)c1` had a melting point of 215.88 °C.

`COc1cc(F)cc(N(CC2CC2)c2ccc3ncc(-c4cnn(C)c4)nc3c2)c1` showed a melting point of 142 °C.

In the case of `COc1cc(OC)cc(N(CC2CC2)c2ccc3ncc(-c4cnn(CCCN5CCOCC5)c4)nc3c2)c1`, the melting point was found to be 123.16 °C.

Compound `COc1cc(OC)cc(N(CC2CC2)c2ccc3ncc(-c4cnn(CCN5CCN(CCO)CC5)c4)nc3c2)c1` registered a melting point of 146.13 °C.

Compound `COCCNC(=O)C(C)(C)n1cc(-c2cnc3ccc(N(CC4CC4)c4cc(OC)cc(OC)c4)cc3n2)cn1` had a melting point of 104.64 °C.

On to `COc1cc(OC)cc(N(CC2CC2)c2ccc3ncc(-c4cnn(CC(=O)NCCO)c4)nc3c2)c1`, for which the melting point came to 167.45 °C.

Turning to `COc1cc(OC)cc(N(Cc2cc(C)on2)c2ccc3ncc(-c4cnn(C)c4)nc3c2)c1`, the melting point came to 171 °C.

As to `CNCCN(c1cc(OC)cc(OCCO)c1)c1ccc2ncc(-c3cnn(C)c3)nc2c1`, the melting point turned out to be 142 °C.

Take `COc1cc(OC)cc(N(CCN)c2ccc3ncc(-c4cn[nH]c4)nc3c2)c1`: the melting point is 184 °C.

`COc1cc(OCCO)cc(N(CCCO)c2ccc3ncc(-c4cnn(C)c4)nc3c2)c1` gave a melting point of 80 °C.

Consider `COc1cc(OC)cc(N(CC#Cc2nccn2C)c2ccc3ncc(-c4cnn(C)c4)nc3c2)c1`, for which the melting point is 193.25 °C and 192 °C.

Take `CNC1CCN(CCCN(c2cc(OC)cc(OC)c2)c2ccc3ncc(-c4cnn(C)c4)nc3c2)C1` (centres unmarked): the melting point amounted to 139.15 °C.

In turn, `COc1cc(OC)cc(N(Cc2ccc(Cl)s2)c2ccc3ncc(-c4cnn(Cc5ccc(Cl)s5)c4)nc3c2)c1` had a melting point of 131.39 °C.

As to `COc1cc(OC)cc(N(c2ccc3ncc(-c4cnn(C)c4)nc3c2)C2COC2)c1`, the melting point is 160.14 °C and 164 °C.

The compound `COc1cc(OCCO)cc(N(CCN)c2ccc3ncc(-c4cnn(C)c4)nc3c2)c1` showed a melting point of 165 °C.

On to `COc1cc(OC)cc(N(CCNC2CC(C)(C)NC(C)(C)C2)c2ccc3ncc(-c4cnn(C)c4)nc3c2)c1`, for which the melting point came to 80 °C.

`COc1ccc(OC)c(N(CCO)c2ccc3ncc(-c4cnn(C)c4)nc3c2)c1` showed a melting point of 191.73 °C.

`C=Cc1cc(OC)cc(N(CC2CC2)c2ccc3ncc(-c4cnn(C)c4)nc3c2)c1` came in with a melting point of 146 °C.

`COc1cc(OC)cc(N(CC(F)CN)c2ccc3ncc(-c4cnn(C)c4)nc3c2)c1` (centres unmarked) had a melting point of 168 °C.

The compound `COc1cc(F)cc(N(CCO)c2ccc3ncc(-c4cn[nH]c4)nc3c2)c1` had a melting point of 80 °C.

The compound `COc1cc(OC)cc(N(CCCO)c2ccc3ncc(-c4cnn(C5CCCCO5)c4)nc3c2)c1` (centres unmarked) gave a melting point of 168.25 °C.

Regarding `COc1cc(OC)cc(N(CCCNCC(F)(F)F)c2ccc3ncc(-c4cnn(C)c4)nc3c2)c1`, the melting point was 123.12 °C and 126 °C.

As to `COc1cc(OC)cc(N(CC2CC2)c2ccc3ncc(-c4cnn(CC(C)(C)O)c4)nc3c2)c1`, the melting point is 159.08 °C and 159 °C.

Consider `COc1cc(OCCO)cc(N(CC2CC2)c2ccc3ncc(-c4cnn(CCS(C)(=O)=O)c4)nc3c2)c1`, for which the melting point stood at 80 °C.

The compound `COc1cc(OC)cc(N(CC2CC2)c2ccc3ncc(-c4cnn(C5CCN(S(C)(=O)=O)CC5)c4)nc3c2)c1` had a melting point of 200 °C.

In turn, `COc1cc(F)cc(N(CCNC(C)C)c2ccc3ncc(-c4cn[nH]c4)nc3c2)c1` showed a melting point of 194 °C.

Take `COc1cc(OC)cc(N(CC2CC2)c2ccc3ncc(-c4cnn(C5CCNCC5)c4)nc3c2)c1`: the melting point amounted to 90 °C.

In turn, `[2H]C([2H])([2H])Oc1cc(OC([2H])([2H])[2H])cc(N(c2ccc3ncc(-c4cnn(C)c4)nc3c2)C([2H])([2H])C([2H])([2H])O)c1` registered a melting point of 149 °C.

Regarding `COc1cc(OC)cc(N(CC2CC2)c2ccc3ncc(-c4cnn(CCC5CCNCC5)c4)nc3c2)c1`, the melting point was 221 °C and 220.78 °C.

For the compound `COc1cc(OC)cc(N(CC#CCO)c2ccc3ncc(-c4cnn(C)c4)nc3c2)c1`, the melting point is 157 °C and 156 °C.

With `C#CCN(c1cc(OC)cc(OC)c1)c1ccc2ncc(-c3cnn(CC4CCOCC4)c3)nc2c1`, the melting point was found to be 106 °C.

`COc1cc(OC)cc(N(c2ccc3ncc(-c4cnn(C)c4)nc3c2)S(=O)(=O)N(C)C)c1` showed a melting point of 80 °C.

`CCOP(=O)(CCN(c1cc(OC)cc(OC)c1)c1ccc2ncc(-c3cnn(C)c3)nc2c1)OCC` showed a melting point of 122 °C.

For `COc1cc(OC)cc(N(CC2CNC(=O)O2)c2ccc3ncc(-c4cnn(C)c4)nc3c2)c1` (centres unmarked), the melting point turned out to be 157 °C.

Regarding `CNc1cccc(CN(c2cc(OC)cc(OC)c2)c2ccc3ncc(-c4cnn(C)c4)nc3c2)n1`, the melting point is 181 °C and 180 °C.

Turning to `COc1cc(OC)cc(N(CC2OCCN(C(C)C)C2=O)c2ccc3ncc(-c4cnn(C)c4)nc3c2)c1` (centres unmarked), the melting point is 187 °C.

For `COc1cc(OC)cc(N(CC2CN(C(C)C)CCO2)c2ccc3ncc(-c4cnn(C)c4)nc3c2)c1` (centres unmarked), the melting point came out at 88 °C.

Turning to `CONCCN(c1cc(OC)cc(OC)c1)c1ccc2ncc(-c3cnn(C)c3)nc2c1`, the melting point amounted to 177 °C.

Consider `COc1cc(OC)cc(N(CCNC(C)C)c2ccc3ncc(-c4cnn(CCS(C)(=O)=O)c4)nc3c2)c1`, for which the melting point came to 148 °C.

In turn, `COc1cc(OC)cc(N(CC2CNCCN2)c2ccc3ncc(-c4cnn(C)c4)nc3c2)c1` (centres unmarked) displayed a melting point of 167 °C.

`COc1cc(OC)cc(N(CC#Cc2nccc(OC)n2)c2ccc3ncc(-c4cnn(C)c4)nc3c2)c1` displayed a melting point of 175 °C.

On to `COc1cc(OC)cc(N(CC(N)=O)c2ccc3ncc(-c4cnn(C)c4)nc3c2)c1`, for which the melting point was 264 °C and 260.14 °C.

`CNC(=O)OCCN(c1cc(OC)cc(OC)c1)c1ccc2ncc(-c3cnn(C)c3)nc2c1` gave a melting point of 160 to 162 °C.

On to `COc1cc(OC)cc(N(CCCNCC(F)(F)F)c2ccc3ncc(-c4cnn(CCCN)c4)nc3c2)c1`, for which the melting point worked out at 175 °C.

As for `[2H]C([2H])([2H])Oc1cc(OC([2H])([2H])[2H])cc(N(CCCNCC(F)(F)F)c2ccc3ncc(-c4cnn(C)c4)nc3c2)c1`, the melting point was 127 °C.

`COc1cc(OC)cc(N(CC#Cc2nccs2)c2ccc3ncc(-c4cnn(C)c4)nc3c2)c1`: the melting point turned out to be 167 °C.

`COc1cccc(C#CCN(c2cc(OC)cc(OC)c2)c2ccc3ncc(-c4cnn(C)c4)nc3c2)c1` registered a melting point of 85 °C.

`COc1cc(OC)cc(N(CCO)c2ccc3ncc(-c4cnn(C)c4CCCO)nc3c2)c1` yielded a melting point of 62 °C.

The compound `COc1cc(OC)cc(N(CC#Cc2ccnc(N)n2)c2ccc3ncc(-c4cnn(C)c4)nc3c2)c1` registered a melting point of 148 °C.

`COc1cc(OC)cc(N(CC#Cc2ccc(C)cn2)c2ccc3ncc(-c4cnn(C)c4)nc3c2)c1` displayed a melting point of 155 °C.

`COc1cc(OC)cc(N(CC#CC2(O)CCNCC2)c2ccc3ncc(-c4cnn(C)c4)nc3c2)c1` showed a melting point of 167 °C.

`COc1cc(OC)cc(N(CCN(C)C(C)C)c2ccc3ncc(-c4cnn(C)c4)nc3c2)c1` showed a melting point of 126 °C.

Take `COc1cc(OC)cc(N(CC2CO2)c2ccc3ncc(-c4cnn(C)c4)nc3c2)c1` (centres unmarked): the melting point was determined as 158.57 °C.

`COc1cc(OC)cc(N(CC#Cc2cc(Cl)nc(N)n2)c2ccc3ncc(-c4cnn(C)c4)nc3c2)c1` displayed a melting point of 220 °C.

`COc1cc(OC)cc(N(CC#Cc2ncccc2OC)c2ccc3ncc(-c4cnn(C(C)C)c4)nc3c2)c1` showed a melting point of 119 °C.

For the compound `COc1cc(OC)cc(N(CC#Cc2cc(C(N)=O)ccn2)c2ccc3ncc(-c4cnn(C)c4)nc3c2)c1`, the melting point was found to be 204 °C.

Turning to `CNCCN(c1cc(OC)cc(OC)c1)c1ccc2ncc(-c3cnn(C)c3)nc2c1`, the melting point was 180 to 182 °C and 181 °C.

Turning to `COc1cc(OC)cc(N(CC#Cc2cccnc2Br)c2ccc3ncc(-c4cnn(C)c4)nc3c2)c1`, the melting point was 176 °C.

On to `COc1cc(OC)cc(N(CC(=O)Nc2cc(C)ccn2)c2ccc3ncc(-c4cnn(C)c4)nc3c2)c1`, for which the melting point was determined as 212 °C.

In turn, `COc1cccnc1C#CCN(c1ccc2ncc(-c3cnn(C)c3)nc2c1)c1c(F)c(OC)cc(OC)c1F` displayed a melting point of 202 °C.

With `COc1cc(OC)cc(N(CC(=O)Nc2nccc(OC)n2)c2ccc3ncc(-c4cnn(C)c4)nc3c2)c1`, the melting point was 241 °C.

With `COc1cc(OC)cc(N(CCc2nnn[nH]2)c2ccc3ncc(-c4cnn(C)c4)nc3c2)c1`, the melting point was 196 °C and 195.95 °C.

Consider `COc1cc(OC)cc(N(CCCN2CCC(F)C2)c2ccc3ncc(-c4cnn(C)c4)nc3c2)c1` (centres unmarked), for which the melting point stood at 125 °C.

Turning to `CCOC(=O)Cn1cc(CN(c2cc(OC)cc(OC)c2)c2ccc3ncc(-c4cnn(C)c4)nc3c2)nn1`, the melting point was 88 °C.

Consider `COc1cc(OC)cc(N(CC2CCN(CC(F)(F)F)CC2)c2ccc3ncc(-c4cnn(C)c4)nc3c2)c1`, for which the melting point is 123 °C and 123.5 °C.

In the case of `COc1cc(OC)cc(N(CC2CCN(C(C)C)CC2)c2ccc3ncc(-c4cnn(C)c4)nc3c2)c1`, the melting point is 168 °C and 168.08 °C.

The melting point is the temperature of the solid-liquid transition.

The values are drawn from US9464071B2 (priority 2010, dated 2016).
